# Patent US9624214B2, “Amino-substituted imidazo[1,2-a]pyridinecarboxamides and their use” (BAYER PHARMA AKTIENGESELLSCHAFT, priority 2012, dated 2017)
# Where a name gives a salt, the structure may show the parent alone.
# Target: T1, recombinant guanylate cyclase reporter cell line (Rattus norvegicus, UniProt P19686+P20595)
# T1 construct: expressed in transfected cells
# T1 sequence (P20595 1-619): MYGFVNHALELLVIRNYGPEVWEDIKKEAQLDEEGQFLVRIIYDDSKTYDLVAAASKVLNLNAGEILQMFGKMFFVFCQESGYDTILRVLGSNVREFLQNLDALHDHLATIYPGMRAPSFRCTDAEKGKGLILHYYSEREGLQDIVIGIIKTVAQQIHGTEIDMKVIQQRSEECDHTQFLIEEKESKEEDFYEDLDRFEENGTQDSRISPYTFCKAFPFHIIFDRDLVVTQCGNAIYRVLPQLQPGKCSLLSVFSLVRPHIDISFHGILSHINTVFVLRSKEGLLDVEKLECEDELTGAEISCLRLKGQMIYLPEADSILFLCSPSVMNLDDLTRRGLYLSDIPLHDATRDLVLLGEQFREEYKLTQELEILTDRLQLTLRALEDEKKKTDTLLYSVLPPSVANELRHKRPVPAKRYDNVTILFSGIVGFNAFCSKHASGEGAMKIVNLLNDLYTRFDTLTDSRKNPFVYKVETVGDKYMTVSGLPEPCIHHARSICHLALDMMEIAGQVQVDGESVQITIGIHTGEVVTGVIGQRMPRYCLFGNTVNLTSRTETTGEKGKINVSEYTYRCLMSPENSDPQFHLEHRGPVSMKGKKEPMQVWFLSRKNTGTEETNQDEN
# T1 sequence (P19686 1-690): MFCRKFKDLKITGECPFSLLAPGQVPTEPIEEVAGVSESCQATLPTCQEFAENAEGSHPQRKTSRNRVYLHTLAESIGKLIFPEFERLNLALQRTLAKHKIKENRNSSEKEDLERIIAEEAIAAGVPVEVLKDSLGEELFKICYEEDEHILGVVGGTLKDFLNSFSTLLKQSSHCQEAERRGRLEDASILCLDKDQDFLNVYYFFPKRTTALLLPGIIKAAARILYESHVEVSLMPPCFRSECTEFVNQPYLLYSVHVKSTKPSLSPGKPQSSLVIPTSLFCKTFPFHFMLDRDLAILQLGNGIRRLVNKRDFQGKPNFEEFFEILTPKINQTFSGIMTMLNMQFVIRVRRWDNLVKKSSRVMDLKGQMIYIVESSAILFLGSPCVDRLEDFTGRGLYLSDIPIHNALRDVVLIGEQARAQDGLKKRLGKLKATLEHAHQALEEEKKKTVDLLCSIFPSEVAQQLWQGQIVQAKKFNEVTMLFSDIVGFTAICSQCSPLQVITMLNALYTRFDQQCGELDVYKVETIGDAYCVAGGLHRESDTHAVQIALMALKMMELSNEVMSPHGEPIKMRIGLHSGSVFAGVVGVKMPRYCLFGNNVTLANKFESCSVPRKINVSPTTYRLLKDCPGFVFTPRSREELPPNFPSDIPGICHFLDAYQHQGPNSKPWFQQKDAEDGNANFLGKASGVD
# Assay: B-2. Action on recombinant guanylate cyclase reporter cell line
# Assay type: cell-based
# Details: MEC = minimal effective concentration; in some cases mean values from individual determinations
# Protocol: B-2. Action on Recombinant Guanylate Cyclase Reporter Cell Line
# The cellular action of the compounds according to the invention is determined on a recombinant guanylate cyclase reporter cell line, as described in F. Wunder et al., Anal. Biochem. 339, 104-112 (2005).
# Representative MEC values (MEC=minimal effective concentration) for the compounds according to the invention are shown in the following table (in some cases as mean values obtained from individual determinations): […]
row,SMILES,MEC
1,"Cc1cc(OCc2c(F)cccc2F)c2nc(C)c(C(=O)NC3CCC(N)C3)n2c1 (mixture of isomers) [Example 308, N-(3-aminocyclopentyl)-8-[(2,6-difluorobenzyl)oxy]-2,6-dimethylimidazo[1,2-a]pyridine-3-carboxamide (Stereoisomer Mixture)]",0.20 µM
2,"Cc1cc(OCc2c(F)cccc2F)c2nc(C)c(C(=O)NC3CNCC3C(F)(F)F)n2c1 (mixture of isomers) [Example 313, 8-[(2,6-Difluorobenzyl)oxy]-2,6-dimethyl-N-[4-(trifluoromethyl)pyrrolidin-3-yl]imidazo[1,2-a]pyridine-3-carboxamide (Mixture of Stereoisomers)]",0.30 µM
3,"Cc1cc(OCc2c(F)cccc2F)c2nc(C)c(C(=O)NC3CC(N)C3)n2c1 (mixture of isomers) [Example 334, N-(3-aminocyclobutyl)-8-[(2,6-difluorobenzyl)oxy]-2,6-dimethylimidazo[1,2-a]pyridine-3-carboxamide (cis/trans Mixture)]",1.00 µM
4,"Cc1cc(OCc2c(F)cccc2F)c2nc(C)c(C(=O)NC3CC(C)(C)C3N)n2c1 (mixture of isomers) [Example 358, N-(2-amino-3,3-dimethylcyclobutyl)-8-[(2,6-difluorobenzyl)oxy]-2,6-dimethylimidazo[1,2-a]pyridine-3-carboxamide Formate (Isomer Mixture)]",0.30 µM
5,"Cc1nc2c(OCc3c(F)cccc3F)cccn2c1C(=O)NC(CN)CC(F)(F)F (racemic) [Example 2, rac-N-(1-Amino-4,4,4-trifluorobutan-2-yl)-8-[(2,6-difluorobenzyl)oxy]-2-methylimidazo[1,2-a]-pyridine-3-carboxamide]",0.65 µM
6,"Cc1nc2c(OCc3c(F)cccc3F)cccn2c1C(=O)NC(CN)CC(C(F)(F)F)C(F)(F)F (racemic) [Example 5, rac-N-[1-amino-5,5,5-trifluoro-4-(trifluoromethyl)pentan-2-yl]-8-[(2,6-difluorobenzyl)oxy]-2-methylimidazo[1,2-a]-pyridine-3-carboxamide trifluoroacetate]",1.00 µM
7,"Cc1nc2c(OCc3c(F)cccc3F)cccn2c1C(=O)NC(CN)c1ccc(F)cc1 (racemic) [Example 9, rac-N-[2-Amino-1-(4-fluorophenyl)ethyl]-8-[(2,6-difluorobenzyl)oxy]-2-methylimidazo[1,2-a]-pyridine-3-carboxamide]",0.30 µM
8,"Cc1nc2c(OCc3c(F)cccc3F)cccn2c1C(=O)NC(CN)c1ccc(F)c(F)c1 (racemic) [Example 11, rac-N-[2-Amino-1-(3,4-difluorophenyl)ethyl]-8-[(2,6-difluorobenzyl)oxy]-2-methylimidazo[1,2-a]pyridine-3-carboxamide]",0.30 µM
9,"Cc1nc2c(OCc3c(F)cccc3F)cccn2c1C(=O)NC(CN)c1ccc(Cl)cc1 (racemic) [Example 14, rac-N-[2-Amino-1-(4-chlorophenyl)ethyl]-8-[(2,6-difluorobenzyl)oxy]-2-methylimidazo[1,2-a]-pyridine-3-carboxamide Dihydrochloride]",1.00 µM
10,"Cc1nc2c(OCc3c(F)cccc3F)cccn2c1C(=O)NC(CN)c1ccccc1 (racemic) [Example 16, rac-N-(2-Amino-1-phenylethyl)-8-[(2,6-difluorobenzyl)oxy]-2-methylimidazo[1,2-a]pyridine-3-carboxamide Dihydrochloride]",0.30 µM
11,"Cc1nc2c(OCc3c(F)cccc3F)cccn2c1C(=O)NC(C)CN (racemic) [Example 17, rac-N-(1-aminopropan-2-yl)-8-[(2,6-difluorobenzyl)oxy]-2-methylimidazo[1,2-a]-pyridine-3-carboxamide dihydrochloride]",1.00 µM
12,"Cc1nc2c(OCc3c(F)cccc3F)cc(Cl)cn2c1C(=O)NCC(C)N (racemic) [Example 23, rac-N-(2-aminopropyl)-6-chloro-8-[(2,6-difluorobenzyl)oxy]-2-methylimidazo[1,2-a]-pyridine-3-carboxamide]",0.30 µM
13,"Cc1nc2c(OCc3c(F)cccc3F)cccn2c1C(=O)NC1CNc2ccccc21 (racemic) [Example 28, rac-8-[(2,6-difluorobenzyl)oxy]-N-(2,3-dihydro-1H-indol-3-yl)-2-methylimidazo[1,2-a] pyridine-3-carboxamide]",0.30 µM
14,"Cc1nc2c(OCc3c(F)cccc3F)cccn2c1C(=O)NCC(C)N (racemic) [Example 34, rac-N-(2-aminopropyl)-8-[(2,6-difluorobenzyl)-oxy]-2-methylimidazo[1,2-a]pyridine-3-carboxamide dihydrochloride]",1.00 µM
15,"Cc1nc2c(OCC3CCCCC3)cccn2c1C(=O)NC(CN)c1ccc(Cl)cc1 (racemic) [Example 43, rac-N-[2-Amino-1-(4-chlorophenyl)ethyl]-8-(cyclohexylmethoxy)-2-methylimidazo[1,2-a]-pyridine-3-carboxamide]",1.00 µM
16,"Cc1nc2c(OCC3CCCCC3)cccn2c1C(=O)NC(CN)c1ccccc1 (racemic) [Example 44, rac-N-(2-Amino-1-phenylethyl)-8-(cyclohexylmethoxy)-2-methylimidazo[1,2-a]pyridine-3-carboxamide]",0.30 µM
17,"Cc1nc2c(OCC3CCCCC3)cccn2c1C(=O)NC(CN)c1ccc(F)c(F)c1 (racemic) [Example 46, rac-N-[2-Amino-1-(3,4-difluorophenyl)ethyl]-8-(cyclohexylmethoxy)-2-methylimidazo[1,2-a]-pyridine-3-carboxamide]",1.00 µM
18,"Cc1nc2c(OCc3c(F)cccc3F)cc(Cl)cn2c1C(=O)NC1CNc2ccccc21 (racemic) [Example 49, rac-6-Chloro-8-[(2,6-difluorobenzyl)oxy]-N-(2,3-dihydro-1H-indol-3-yl)-2-methylimidazo[1,2-a]-pyridine-3-carboxamide]",0.30 µM
19,"Cc1nc2c(OCc3c(F)cccc3F)cccn2c1C(=O)NC1CCNc2ccccc21 (racemic) [Example 50, rac-8-[(2,6-Difluorobenzyl)oxy]-2-methyl-N-(1,2,3,4-tetrahydroquinolin-4-yl)imidazo[1,2-a]-pyridine-3-carboxamide]",0.03 µM
20,"Cc1nc2c(OCc3c(F)cccc3F)cccn2c1C(=O)NC(CN)COc1ccc(F)cc1 (racemic) [Example 58, rac-N-[1-amino-3-(4-fluorophenoxy)propan-2-yl]-8-[(2,6-difluorobenzyl)oxy]-2-methylimidazo[1,2-a]pyridine-3-carboxamide]",1.00 µM
21,"Cc1nc2c(OCc3c(F)cccc3F)cccn2c1C(=O)NC(CN)COc1ccccc1 (racemic) [Example 59, rac-N-(1-amino-3-phenoxypropan-2-yl)-8-[(2,6-difluorobenzyl)oxy]-2-methylimidazo[1,2-a]-pyridine-3-carboxamide dihydrochloride]",3.00 µM
22,"Cc1nc2c(OCc3c(F)cccc3F)cccn2c1C(=O)NC(CN)COC(C)C (racemic) [Example 63, rac-N-(1-Amino-3-isopropoxypropan-2-yl)-8-[(2,6-difluorobenzyl)oxy]-2-methylimidazo[1,2-a]-pyridine-3-carboxamide]",0.30 µM
